Earlier results on 2 compounds are cited in patent US20090047276A1, “METHODS FOR […] OR TISSUE RE[…] A […]” (UNIVERSITY OF WASHINGTON, priority 2007, published 2009).

Data set [1] concerns GSK-3. Particulars: literature values (Ring et al. 2003; Cline et al. 2002); read-out: half-maximal effective concentration [EC50].
Data set [2] concerns GSK-3. Particulars: literature values (Ring et al. 2003; Cline et al. 2002).

pEC50: −log10 of the molar value.

On to `Cc1c[nH]c(-c2cnc(NCCNc3ccc(C#N)cn3)nc2-c2ccc(Cl)cc2Cl)n1` [CHIR-911], for which, in the data set on GSK-3 [1], the pEC50 is […]. For the same compound, the “selectivity for GSK-3” value in the data set with GSK-3 [2] is […].

As to `O=[N+]([O-])c1ccc(NCCNc2ncc(-c3ncc[nH]3)c(-c3ccc(Cl)cc3Cl)n2)nc1` [CHIR-837], the pEC50 with GSK-3 [1] is 6.43. Also, in the data set on GSK-3 [2], the “selectivity for GSK-3” value is listed as > 5,000 fold.
